Patent US20250255293A1, “TISSUE DECONTAMINATION AND PRESERVATION SYSTEM” (priority 2024, published 2025)
Values joined by “and” are separate entries in the source; they are usually repeats but may differ in a detail not shown here. Equal values may be shown once. Read-outs that look alike come from different tables or passages of the source.

Key:
[1] = test system: canines with grade 3 open femoral bicondylar fracture; experiment: Functional outcomes after reimplantation of decontaminated fracture fragment (Example 4); format: in vivo, canine
Procedure: A grade 3 open femoral bicondylar fracture was created in 3 canines. A lateral parapatellar approach was used, the fragment was cultured and retrieved. The fragment was irrigated, treated with 0.002% chlorhexidine for 20 minutes, irrigated, and stored in MOPS® for 7 days, after which the fragment was reimplanted, and both condyles were repaired with 3.5 mm cannulated lag screws. After 3 months, quantitative bacterial cultures (CFU/g; Table 2) and functional outcomes (Table 3) were measured.

[2] = test system: chondrocytes of osteoarticular fracture fragments; experiment: Viable chondrocyte density, live-dead calcein AM / ethidium homodimer assay (Example 3); format: cell-based, canine; conditions: for Viable Chondrocyte Density, mean (SD): 20 min immersion (10% povidone-iodine or 0.002% chlorhexidine)
From the text: (§1) Purpose-bred hounds (n=16) were humanely euthanized, immediately after which an open articular fracture in both elbows (n=32) was created using a captive bolt pistol. Each dog was positioned in sternal recumbency with one forelimb extended and secured in a custom made positioning apparatus. Fur was not clipped and no aseptic preparation or techniques were implemented. A captive bolt stunner pistol with a 4.75-inch penetrating pin and 1.25 grain cartridge was centered on the cranial (anterior) aspect of the distal humerus, immediately proximal to the joint. With firm pressure against the secured elbow, the pistol was discharged, and the procedure was repeated for the contralateral elbow. Soft tissues were removed aseptically and the distal humerus (n=32), proximal radius (n=32), and trochlea (n=32) were osteotomized and processed under operating room conditions in 1 of 3 ways: 1) Betadine ([…]): 0.9% saline irrigation (1 L), 10% povidone-iodine solution immersion (20 min), saline irrigation; 2) Chlorhexidine (n=42): saline irrigation, 0.002% chlorhexidine solution immersion (20 min), saline irrigation; 3) Control (n=12): untreated. Each osteoarticular fragment was placed in 200 ml of MOPS® solution (500 ml DMEM, 5 ml ITS (insulin (10 mg/L), transferrin 55 mg/L), selenium (6.7 μg/L)), 5 ml total penicillin (100 U/ml), streptomycin (100 μg/ml), amphotericin B (2.5 μg/ml), 5 ml L-glutamine (2 mM), 5 ml non-essential amino acids (0.1 mM), 1 ml ascorbic acid (50 ng/ml), and 5.46 ml dexamethasone (0.1 μM)) in a sterile container and stored under standard room temperature and humidity conditions for 7 (n=46) or 14 (n=48) days. At each time point, viable chondrocyte density (VCD) and quantitative microbial culture assessments were assayed, yielding a count of colony forming units (CFU) per specimen.
Viable chondrocyte density (VCD) was evaluated using a live-dead calcein AM (live stain) and ethidium homodimer (dead stain) assay, as previously described (Cook, et al., Am. J. Sports Med. 44:1260-1268, 2016). A minimum of two images from each osteochondral fragment were assessed via fluorescent microscopy. The VCD was determined by counting the number of viable cells in each image and dividing this by the area of the tissue in the image (#of viable cells/area of cartilage tissue mm^2). This methodology was aimed at providing an objective and quantifiable assessment of cell viability post-treatment.
(§2) Univariate comparison of VCD and CFU were performed via Kruskal-Wallis and Chi-squared test. Multivariate linear regression was used, controlling for osteotomy site and storage time, to determine the correlation between processing method and VCD or CFU. Data manipulation and statistical analysis were performed using R software.

[3] = test system: contaminated osteochondral tissues; conditions: 10% povidone-iodine or 0.4% chlorhexidine, 20-minute immersion; cited from earlier work
cells in bone = conditions: decontamination with 2% chlorhexidine gluconate; cited from earlier work
[4] = test system: microbial contamination of osteoarticular fracture fragments; experiment: Quantitative microbial culture of osteoarticular fragments, colony forming units per specimen (Example 3); format: cell-based; conditions: for Colony Forming Units, mean (SD): 20 min immersion (10% povidone-iodine or 0.002% chlorhexidine)
From the text: as §1
In parallel, quantitative microbial cultures were performed on the humerus, radial head, and trochlea of each dog at either 7 or 14 days. Each tissue intended for culture was placed into 18 ml thioglycollate broth and vortexed for 30 seconds. One milliliter of the broth was immediately extracted for the 1:1 dilution and placed in an Eppendorf tube. Serial 1:10 dilutions were made from that subsample and plated within an hour. The plating process comprised 10 μl of each dilution streaked semi-quantitatively onto tryptic soy agar with 5% sheep blood and reduced blood agar. All dilutions were incubated for 72 hours before counting. Additional incubation in the remaining 17 ml thioglycollate for 48 hours was performed, and 10 μl of thioglycollate was re-streaked at that time and incubated for another 72 hours. Organisms were identified via MALDI-TOF or 16S sequencing.
as §2

[5] = test system: contaminated human femoral osteochondral allografts; conditions: 0.002% chlorhexidine gluconate, pulse lavage (1 L) / immediate intraoperative treatment, cited from earlier work
[6] = 3 months after reimplantation of fragment treated with 0.002% chlorhexidine and stored in MOPS 7 days
[7] = saline irrigation, 0.002% chlorhexidine immersion, room temperature storage in MOPS
[8] = storage time 7 days in MOPS at room temperature
[9] = storage time 14 days in MOPS at room temperature

## [H]/N=C(\N/C(=N/[H])NCCCCCCNC(=N)NC(=N)Nc1ccc(Cl)cc1)Nc1ccc(Cl)cc1 [Chlorhexidine, chlorhexidine gluconate]
[1]; [6]
  Function (VAS) Post: 9 and 8.8 and 9.3
  ROM Post: 101 degrees and 97 degrees and 104 degrees
[1]; Post, individual dogs
  Pain (VAS) Post: 0
[1]; Pre, individual dogs
  Pain (VAS) Pre: 1.2 and 1.9 and 0.6
[1]; baseline, individual dogs
  Function (VAS) Pre: 10
  ROM Pre: 108 degrees and 107 degrees and 109 degrees
[2]; at 7 days
  mean VCD: 772
[2]; at 14 days
  mean VCD: 710
[2]; multivariate linear regression, controlling for storage timing and osteotomy site
  increase of VCD relative to control treatment: 377 VCD
[2]; [7]
  maintenance of chondrocyte viability (in words): maintaining chondrocyte viability for up to 14 days
[2]; [8]
  Viable Chondrocyte Density, mean (SD): 772.3 (257.0) mm^−2
[2]; [9]
  Viable Chondrocyte Density, mean (SD): 709.5 (338.0) mm^−2
[3]
  decontamination of contaminated osteochondral tissues: effective at fully decontaminating
Cells in bone
  cell viability in bone: complete loss of cell viability
[4]; at 7 days
  mean CFU: 0.4
[4]; at 14 days
  mean CFU: 7.9
[4]; multivariate linear regression, controlling for osteotomy site and storage timing
  decrease of CFU relative to control treatment: 15.8×10^6 CFU
[4]; [7]
  decontamination of osteoarticular fracture fragments (in words): effective for decontaminating osteoarticular fracture fragments
[4]; [8]
  Colony Forming Units, mean (SD): 0.4 (1.8) 10^6 per specimen
[4]; [9]
  Colony Forming Units, mean (SD): 7.9 (14.2) 10^6 per specimen
[5]; listed as Chlorhexidine Gluconate
  decontamination of contaminated osteochondral allografts: effective decontamination
[5]; listed as chlorhexidine gluconate
  decontamination of contaminated osteochondral allografts: effective for complete decontamination
